Laboratory results taken from US20250188092A1, “RIFAMYCIN ANALOGS” (THE REGENTS OF THE UNIVERSITY OF MICHIGAN, priority 2021, published 2025).
≈ marks a conversion by molar mass, not a printed value.

Columns and labels:
MTB H37Rv ATCC 27294 = assay: MIC, microplate Alamar Blue assay (MABA); type: cell-based, Mycobacterium tuberculosis; settings: for MIC90: Mycobacterium tuberculosis, MTB H37Rv ATCC 27294, microplate Alamar Blue assay, lowest concentration giving ≥90% reduction in fluorescence
VERO cells (ATCC CRL-81) = assay: Vero cell toxicity; type: cell-based; settings: Chlorocebus sabaeus, Vero; 72 hours exposure
Method: Cytotoxicity for a mammalian cell line was determined by exposing VERO cells (ATCC CRL-81) to serial dilutions of test compounds for 72 hours, followed by addition of resazurin and measurement of fluorescence after 4 hours incubation (Choules, et al., Antimnicrob. Agents Chemother. 2019, 63, e02204-02218).

DPX2 cells = settings: for DPX2 Viability @ 6.25 μM: 24 h; for DPX2 Viability @ 25 μM: human

Compound	MIC90 MABA Rel to RMP (MTB H37Rv ATCC 27294)	MIC90 (MTB H37Rv ATCC 27294) [µM]	IC50 (VERO cells (ATCC CRL-81)) [µM]	DPX2 Viability @ 6.25 μM (DPX2 cells) [%]	DPX2 Viability @ 25 μM (DPX2 cells) [%]
CO[C@H]1/C=C/O[C@@]2(C)Oc3c(C)c(O)c4c(=O)c(c5oc6cc(N7CCN(C(=O)c8ccccc8)CC7)cc(OCc7ccc(CN8CCOCC8)cc7)c6nc-5c4c3C2=O)NC(=O)/C(C)=C\C=C\[C@H](C)[C@H](O)[C@@H](C)[C@@H](O)[C@@H](C)[C@H](OC(C)=O)[C@@H]1C [Compound 17m, (7S,9E,11S,12R,13S,14R,15R,16R,17S,18S,19E,21Z)-30-(4-benzoylpiperazin-1-yl)-2,15,17-trihydroxy-1-methoxy-3,7,12,14,16,18,22-heptamethyl-32-{[4-(morpholin-4-ylmethyl)phenyl]methoxy}-6,23,37-trioxo-8,27,38-trioxa-24,34-diazahexacyclo-[23.11.1.1^4,7.0^5,36.0^26,35.0^28,33]octatriaconta-1,3,5(36)9,19,21,25,28,30,32,34-undecaen-13-yl acetate]	0.34	0.017	> 10	89	78
CO[C@H]1/C=C/O[C@@]2(C)Oc3c(C)c(O)c4c(=O)c(c5oc6cc(N7CCN(C(=O)c8ccncc8)CC7)cc(OCc7ccc(CN8CCOCC8)cc7)c6nc-5c4c3C2=O)NC(=O)/C(C)=C\C=C\[C@H](C)[C@H](O)[C@@H](C)[C@@H](O)[C@@H](C)[C@H](OC(C)=O)[C@@H]1C [Compound 17n, 7S,9E,11S,12R,13S,14R,15R,16R,17S,18S,19E,21Z)-2,15,17-trihydroxy-11-methoxy-3,7,12,14,16,18,22-heptamethyl-32-{[4-(morpholin-4-ylmethyl)phenyl]methoxy}-6,23,37-trioxo-30-{4-[(pyridin-4-yl)carbonyl]piperazin-1-yl}-8,27,38-trioxa-24,34-diazahexacyclo[23.11.1.1^4,7.0^5,36.0^26,35.0^28,33]octatriaconta-1,3,5(36)9,19,21,25,28,30,32,34-undecaen-13-yl acetate]	1.5	0.073	> 10	102	98
CO[C@H]1/C=C/O[C@@]2(C)Oc3c(C)c(O)c4c(=O)c(c5oc6cc(N7CCOC(CN(C)C)C7)cc(OCc7ccc(CN8CCOCC8)cc7)c6nc-5c4c3C2=O)NC(=O)/C(C)=C\C=C\[C@H](C)[C@H](O)[C@@H](C)[C@@H](O)[C@@H](C)[C@H](OC(C)=O)[C@@H]1C (stereo partly drawn) [Compound 17o, (7S,9E,11S,12R,13S,14R,15R,16R,17S,18S,19E,21Z)-30-{2-[(dimethylamino)methyl]morpholin-4-yl}-2,15,17-trihydroxy-11-methoxy-3,7,12,14,16,18,22-heptamethyl-32-{[4-(morpholin-4-ylmethyl)phenyl]methoxy}-6,23,37-trioxo-8,27,38-trioxa-24,34-diazahexacyclo[23.11.1.1^4,7.0^5,36.0^26,35.0^28,33]octatriaconta-1,3,5(36)9,19,21,25,28,30,32,34-undecaen-13-yl acetate]	1.1	0.055	> 10	96	42
CO[C@H]1/C=C/O[C@@]2(C)Oc3c(C)c(O)c4c(=O)c(c5oc6cc(N7CCN(CC(C)C)CC7)cc(OCc7ccc(CN8CCN(C)CC8)cc7)c6nc-5c4c3C2=O)NC(=O)/C(C)=C\C=C\[C@H](C)[C@H](O)[C@@H](C)[C@@H](O)[C@@H](C)[C@H](OC(C)=O)[C@@H]1C [Compound 17p, (7S,9E,11S,12R,13S,14R,15R,16R,17S,18S,19E,21Z)-2,15,17-trihydroxy-11-methoxy-3,7,12,14,16,18,22-heptamethyl-32-({4-[(4-methylpiperazin-1-yl)methyl]phenyl}methoxy)-30-[4-(2-methylpropyl)piperazin-1-yl]-6,23,37-trioxo-8,27,38-trioxa-24,34-diazahexacyclo-[23.11.1.1^4,7.0^5,36.0^26,35.0^28,33]octatriaconta-1,3,5(36)9,19,21,25,28,30,32,34-undecaen-13-yl acetate]	–	0.0094	> 10	116	80
CO[C@H]1/C=C/O[C@@]2(C)Oc3c(C)c(O)c4c(=O)c(c5oc6cc(N7CCC(C(=O)O)CC7)cc(OCc7ccc(CN8CCN(C)CC8)cc7)c6nc-5c4c3C2=O)NC(=O)/C(C)=C\C=C\[C@H](C)[C@H](O)[C@@H](C)[C@@H](O)[C@@H](C)[C@H](OC(C)=O)[C@@H]1C [Compound 17q, 1-[(7S,9E,11S,12R,13S,14R,15R,16R,17S,18S,19E,21Z)-13-(acetyloxy)-2,15,17-trihydroxy-11-methoxy-3,7,12,14,16,18,22-heptamethyl-32-({4-[(4-methylpiperazin-1-yl)methyl]phenyl}methoxy)-6,23,37-trioxo-8,27,38-trioxa-24,34-diazahexacyclo-[23.11.1.1^4,7.0^5,36.0^26,35.0^28,33]-octatriaconta-1,3,5(36)9,19,21,25,28,30,32,34-undecaen-30-yl]piperidine-4-carboxylic acid]	16	0.415 (≈ 0.469 µg/mL)	> 10	100	98
CO[C@H]1/C=C/O[C@@]2(C)Oc3c(C)c(O)c4c(=O)c(c5oc6cc(N7CCN(C(=O)c8ccc9occc9c8)CC7)cc(OCc7ccc(CN8CCOCC8)cc7)c6nc-5c4c3C2=O)NC(=O)/C(C)=C\C=C\[C@H](C)[C@H](O)[C@@H](C)[C@@H](O)[C@@H](C)[C@H](OC(C)=O)[C@@H]1C [Compound 17s, (7S,9E,11S,12R,13S,14R,15R,16R,17S,18S,19E,21Z)-30-{4-[(1-benzofuran-5-yl)carbonyl]piperazin-1-yl}-2,15,17-trihydroxy-11-methoxy-3,7,12,14,16,18,22-heptamethyl-32-{[4-(morpholin-4-ylmethyl)phenyl]methoxy}-6,23,37-trioxo-8,27,38-trioxa-24,34-diazahexacyclo[23.11.1.1^4,7.0^5,36.0^26,35.0^28,33]octatriaconta-1,3,5(36)9,19,21,25,28,30,32,34-undecaen-13-yl acetate]	0.36	0.018	> 10	102	86
CO[C@H]1/C=C/O[C@@]2(C)Oc3c(C)c(O)c4c(=O)c(c5oc6cc(N7CCCC(C(=O)Nc8ccc(Cl)cc8)C7)cc(C)c6nc-5c4c3C2=O)NC(=O)/C(C)=C\C=C\[C@H](C)[C@H](O)[C@@H](C)[C@@H](O)[C@@H](C)[C@H](OC(C)=O)[C@@H]1C (stereo partly drawn) [Compound 28, (7S,9E,11S,12R,13S,14R,15R,16R,17S,1S,19E,21Z)-30-{3-[(4-Chlorophenyl)carbamoyl]piperidin-1-yl}-2,15,17-trihydroxy-11-methoxy-3,7,12,14,16,18,22,32-octamethyl-6,23,37-trioxo-8,27,38-trioxa-24,34-diazahexacyclo[23.11.1.1^4,7.0^5,36.0^26,35.0^28,33]octatriaconta-1(36)2,4,9,19,21,25,28,30,32,34-undecaen-13-yl acetate]	0.16	0.0044	> 10	110	109
CO[C@H]1/C=C/O[C@@]2(C)Oc3c(C)c(O)c4c(=O)c(c5oc6cc(N7CCN(C(=O)c8cccc(-c9ccccn9)c8)CC7)cc(C)c6nc-5c4c3C2=O)NC(=O)/C(C)=C\C=C\[C@H](C)[C@H](O)[C@@H](C)[C@@H](O)[C@@H](C)[C@H](OC(C)=O)[C@@H]1C [Compound 29b, (7S,9E,11S,12R,13S,14R,15R,16R,17S,18S,19E,21Z)-2,15,17-Trihydroxy-11-methoxy-3,7,12,14,16,18,22,32-octamethyl-6,23,37-trioxo-30-(4-[3-(pyridin-2-yl)benzoyl]piperazin-1-yl)-8,27,38-trioxa-24,34-diazahexacyclo-[23.11.1.1^4,7.0^5,36.0^26,35.0^28,33]octatriaconta-1(36)2,4,9,19,21,25,28,30,32,34-undecaen-13-yl acetate]	0.32	0.0087	> 10	136	128
CO[C@H]1/C=C/O[C@@]2(C)Oc3c(C)c(O)c4c(=O)c(c5oc6cc(N7CCN(C(=O)c8ccc9occc9c8)CC7)cc(C)c6nc-5c4c3C2=O)NC(=O)/C(C)=C\C=C\[C@H](C)[C@H](O)[C@@H](C)[C@@H](O)[C@@H](C)[C@H](OC(C)=O)[C@@H]1C [Compound 29c, (7S,9E,11S,12R,13S,14R,15R,16R,17S,18S,19E,21Z)-30-[4-(1-Benzofuran-5-carbonyl)piperazin-1-yl]-2,15,17-trihydroxy-11-methoxy-3,7,12,14,16,18,22,32-octamethyl-6,23,37-trioxo-8,27,38-trioxa-24,34-diazahexacyclo[23.11.1.1^4,7.0^5,36.0^26,35.0^28,33]octatriaconta-(36)2,4,9,19,21,25,28,30,32,34-undecaen-13-yl acetate]	0.18	0.0049	> 10	121	114
